Measured values: the kinase profiling compilation of Christmann-Franck et al. (2016)
Each block holds one compound with its values, some of them ahead of it.

Assays:
Test in all cases: radiometric filter-binding kinase assay, Kinase HotSpot
Conditions in all cases: compound 0.5 µM; ATP 10 µM
ADRBK1 (human) = ADRBK1 (human) (UniProt P25098)
ADRBK2 (human) = ADRBK2 (human) (UniProt P35626)
AKT3 (human) = AKT3 (human) (UniProt Q9Y243)
BLK (human) = BLK (human) (UniProt P51451)
CAMK1 (human) = CAMK1 (human) (UniProt Q14012)
CAMK1G (human) = CAMK1G (human) (UniProt Q96NX5)
CDK7 CCNH MNAT1 (human) = CDK7 CCNH MNAT1 (human) (UniProt P50613+P51948+P51946)
CDK9 CCNT1 (human) = CDK9 CCNT1 (human) (UniProt P50750+O60563)
CHEK1 (human) = CHEK1 (human) (UniProt O14757)
CLK2 (human) = CLK2 (human) (UniProt P49760)
CSNK1A1 (human) = CSNK1A1 (human) (UniProt P48729)
DCLK2 (human) = DCLK2 (human) (UniProt Q8N568)
DYRK1B (human) = DYRK1B (human) (UniProt Q9Y463)
DYRK2 (human) = DYRK2 (human) (UniProt Q92630)
DYRK4 (human) = DYRK4 (human) (UniProt Q9NR20)
EPHA2 (human) = EPHA2 (human) (UniProt P29317)
ERBB4 (human) = ERBB4 (human) (UniProt Q15303)
FES (human) = FES (human) (UniProt P07332)
FGFR2 (human) = FGFR2 (human) (UniProt P21802)
FLT1 (human) = FLT1 (human) (UniProt P17948)
IRAK4 (human) = IRAK4 (human) (UniProt Q9NWZ3)
JAK2 JH1 JH2 (human) = JAK2 JH1 JH2 (human) (UniProt O60674)
KDR (human) = KDR (human) (UniProt P35968)
MAPK13 (human) = MAPK13 (human) (UniProt O15264)
MAPK3 (human) = MAPK3 (human) (UniProt P27361)
MAPK9 (human) = MAPK9 (human) (UniProt P45984)
MLTK (human) = MLTK (human) (UniProt Q9NYL2)
MYLK (human) = MYLK (human) (UniProt Q15746)
NEK6 (human) = NEK6 (human) (UniProt Q9HC98)
NLK (human) = NLK (human) (UniProt Q9UBE8)
NTRK2 (human) = NTRK2 (human) (UniProt Q16620)
PASK (human) = PASK (human) (UniProt Q96RG2)
PKN1 (human) = PKN1 (human) (UniProt Q16512)
RET (human) = RET (human) (UniProt P07949)
RIPK2 (human) = RIPK2 (human) (UniProt O43353)
STK11 (human) = STK11 (human) (UniProt Q15831)
STK16 (human) = STK16 (human) (UniProt O75716)
SYK (human) = SYK (human) (UniProt P43405)
TAOK1 (human) = TAOK1 (human) (UniProt Q7L7X3)
TBK1 (human) = TBK1 (human) (UniProt Q9UHD2)
TGFBR1 (human) = TGFBR1 (human) (UniProt P36897)
TGFBR2 (human) = TGFBR2 (human) (UniProt P37173)
Chain of TGFBR2 (human) (P37173 whole entry, looked up): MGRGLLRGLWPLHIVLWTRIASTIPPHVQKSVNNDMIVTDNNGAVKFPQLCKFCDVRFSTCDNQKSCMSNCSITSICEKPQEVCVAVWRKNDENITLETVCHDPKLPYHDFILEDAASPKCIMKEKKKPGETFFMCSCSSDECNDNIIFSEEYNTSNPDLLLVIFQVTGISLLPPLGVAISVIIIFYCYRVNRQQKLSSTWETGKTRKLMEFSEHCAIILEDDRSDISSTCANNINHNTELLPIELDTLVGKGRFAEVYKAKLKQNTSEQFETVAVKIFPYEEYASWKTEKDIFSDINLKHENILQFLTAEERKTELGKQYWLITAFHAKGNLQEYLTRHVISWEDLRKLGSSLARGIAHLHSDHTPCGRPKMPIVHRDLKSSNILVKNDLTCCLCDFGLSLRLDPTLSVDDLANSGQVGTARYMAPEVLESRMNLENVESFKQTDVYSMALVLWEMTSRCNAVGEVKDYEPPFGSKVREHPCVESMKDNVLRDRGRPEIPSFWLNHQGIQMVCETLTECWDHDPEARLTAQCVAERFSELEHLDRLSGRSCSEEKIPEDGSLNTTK

Chain of FGFR2 (human) (P21802 whole entry, looked up): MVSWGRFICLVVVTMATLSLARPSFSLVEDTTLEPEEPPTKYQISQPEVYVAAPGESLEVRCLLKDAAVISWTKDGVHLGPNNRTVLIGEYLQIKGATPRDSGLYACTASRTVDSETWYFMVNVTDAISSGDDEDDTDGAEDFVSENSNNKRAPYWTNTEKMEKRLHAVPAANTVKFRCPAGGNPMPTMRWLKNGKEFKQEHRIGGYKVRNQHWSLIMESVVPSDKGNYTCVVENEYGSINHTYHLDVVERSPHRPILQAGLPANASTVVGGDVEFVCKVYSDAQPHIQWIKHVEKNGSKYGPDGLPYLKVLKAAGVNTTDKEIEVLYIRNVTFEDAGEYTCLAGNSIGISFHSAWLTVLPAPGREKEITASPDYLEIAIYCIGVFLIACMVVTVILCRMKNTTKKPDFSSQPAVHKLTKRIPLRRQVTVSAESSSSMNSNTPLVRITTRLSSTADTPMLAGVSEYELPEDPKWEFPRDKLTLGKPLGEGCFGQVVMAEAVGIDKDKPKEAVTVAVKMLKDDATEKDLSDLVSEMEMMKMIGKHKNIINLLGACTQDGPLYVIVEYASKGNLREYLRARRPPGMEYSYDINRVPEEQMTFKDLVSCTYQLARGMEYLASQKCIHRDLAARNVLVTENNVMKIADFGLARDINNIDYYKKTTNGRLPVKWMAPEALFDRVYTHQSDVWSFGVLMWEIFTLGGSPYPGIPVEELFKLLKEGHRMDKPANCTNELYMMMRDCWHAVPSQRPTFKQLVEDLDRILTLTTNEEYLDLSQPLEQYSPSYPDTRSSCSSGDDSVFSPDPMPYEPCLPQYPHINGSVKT
Chain of EPHA2 (human) (P29317 whole entry, looked up): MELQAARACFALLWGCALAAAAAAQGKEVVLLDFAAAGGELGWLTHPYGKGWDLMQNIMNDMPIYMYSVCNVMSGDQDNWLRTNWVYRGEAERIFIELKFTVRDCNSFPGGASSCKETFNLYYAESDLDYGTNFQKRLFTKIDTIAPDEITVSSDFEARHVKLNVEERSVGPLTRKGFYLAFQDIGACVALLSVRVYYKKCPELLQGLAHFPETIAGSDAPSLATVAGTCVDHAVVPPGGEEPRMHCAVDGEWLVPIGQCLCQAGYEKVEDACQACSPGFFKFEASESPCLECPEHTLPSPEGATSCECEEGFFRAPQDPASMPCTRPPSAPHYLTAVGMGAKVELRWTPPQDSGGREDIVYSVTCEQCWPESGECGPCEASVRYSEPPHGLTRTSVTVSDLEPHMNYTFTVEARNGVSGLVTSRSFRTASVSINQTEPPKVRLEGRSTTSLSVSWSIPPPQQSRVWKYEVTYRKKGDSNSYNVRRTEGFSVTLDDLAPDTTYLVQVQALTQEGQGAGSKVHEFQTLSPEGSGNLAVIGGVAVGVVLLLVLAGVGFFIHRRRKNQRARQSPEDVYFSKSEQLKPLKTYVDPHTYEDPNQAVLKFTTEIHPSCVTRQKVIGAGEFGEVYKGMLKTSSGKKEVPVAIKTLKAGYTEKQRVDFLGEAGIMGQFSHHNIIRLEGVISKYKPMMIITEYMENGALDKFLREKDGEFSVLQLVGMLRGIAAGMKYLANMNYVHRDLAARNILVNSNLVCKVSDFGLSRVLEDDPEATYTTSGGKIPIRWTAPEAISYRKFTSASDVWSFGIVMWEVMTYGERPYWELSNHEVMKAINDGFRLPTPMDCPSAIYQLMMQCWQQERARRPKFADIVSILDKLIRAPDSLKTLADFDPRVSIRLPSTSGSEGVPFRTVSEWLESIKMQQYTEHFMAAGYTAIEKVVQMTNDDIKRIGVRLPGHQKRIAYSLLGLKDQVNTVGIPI
Chain of TBK1 (human) (Q9UHD2 whole entry, looked up): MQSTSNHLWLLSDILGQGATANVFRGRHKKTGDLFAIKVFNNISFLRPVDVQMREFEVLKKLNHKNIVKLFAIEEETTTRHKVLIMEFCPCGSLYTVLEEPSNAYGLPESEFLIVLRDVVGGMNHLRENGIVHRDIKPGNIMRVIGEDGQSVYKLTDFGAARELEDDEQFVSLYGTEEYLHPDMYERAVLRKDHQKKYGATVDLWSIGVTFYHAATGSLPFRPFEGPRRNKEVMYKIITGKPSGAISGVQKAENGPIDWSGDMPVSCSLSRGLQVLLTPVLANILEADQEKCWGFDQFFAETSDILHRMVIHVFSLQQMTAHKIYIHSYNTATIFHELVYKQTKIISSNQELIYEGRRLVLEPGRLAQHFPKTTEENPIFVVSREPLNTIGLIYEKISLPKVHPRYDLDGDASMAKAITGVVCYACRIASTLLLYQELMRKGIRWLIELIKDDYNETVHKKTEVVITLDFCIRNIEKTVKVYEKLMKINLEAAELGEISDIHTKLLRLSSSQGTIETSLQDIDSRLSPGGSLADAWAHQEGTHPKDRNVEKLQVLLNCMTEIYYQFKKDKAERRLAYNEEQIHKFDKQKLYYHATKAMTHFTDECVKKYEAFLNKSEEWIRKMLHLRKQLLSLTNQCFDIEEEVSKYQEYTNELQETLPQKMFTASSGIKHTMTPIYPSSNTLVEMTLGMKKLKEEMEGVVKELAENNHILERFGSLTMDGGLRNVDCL
Chain of DYRK4 (human) (Q9NR20 whole entry, looked up): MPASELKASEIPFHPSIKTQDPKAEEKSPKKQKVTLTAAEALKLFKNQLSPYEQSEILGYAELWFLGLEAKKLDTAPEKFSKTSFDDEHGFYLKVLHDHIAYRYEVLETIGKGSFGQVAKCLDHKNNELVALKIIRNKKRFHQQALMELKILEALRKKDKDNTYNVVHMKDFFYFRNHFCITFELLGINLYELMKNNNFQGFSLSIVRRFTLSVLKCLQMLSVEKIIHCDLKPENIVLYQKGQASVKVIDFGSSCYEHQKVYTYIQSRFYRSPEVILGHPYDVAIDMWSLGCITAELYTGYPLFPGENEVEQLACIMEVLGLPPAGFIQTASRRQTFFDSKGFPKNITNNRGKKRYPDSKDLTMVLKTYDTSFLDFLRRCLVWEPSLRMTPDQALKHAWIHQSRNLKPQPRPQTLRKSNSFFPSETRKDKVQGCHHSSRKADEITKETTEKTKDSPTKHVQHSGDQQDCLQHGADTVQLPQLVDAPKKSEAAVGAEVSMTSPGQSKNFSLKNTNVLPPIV
Chain of STK16 (human) (O75716 whole entry, looked up): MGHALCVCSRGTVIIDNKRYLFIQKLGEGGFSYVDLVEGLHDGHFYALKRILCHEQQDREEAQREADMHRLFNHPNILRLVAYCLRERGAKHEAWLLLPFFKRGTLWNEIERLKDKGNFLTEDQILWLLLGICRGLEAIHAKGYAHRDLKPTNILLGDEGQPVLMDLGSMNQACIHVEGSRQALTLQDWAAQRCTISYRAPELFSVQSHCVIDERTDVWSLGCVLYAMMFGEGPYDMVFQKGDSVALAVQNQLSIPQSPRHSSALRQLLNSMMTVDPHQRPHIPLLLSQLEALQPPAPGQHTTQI
Chain of IRAK4 (human) (Q9NWZ3 whole entry, looked up): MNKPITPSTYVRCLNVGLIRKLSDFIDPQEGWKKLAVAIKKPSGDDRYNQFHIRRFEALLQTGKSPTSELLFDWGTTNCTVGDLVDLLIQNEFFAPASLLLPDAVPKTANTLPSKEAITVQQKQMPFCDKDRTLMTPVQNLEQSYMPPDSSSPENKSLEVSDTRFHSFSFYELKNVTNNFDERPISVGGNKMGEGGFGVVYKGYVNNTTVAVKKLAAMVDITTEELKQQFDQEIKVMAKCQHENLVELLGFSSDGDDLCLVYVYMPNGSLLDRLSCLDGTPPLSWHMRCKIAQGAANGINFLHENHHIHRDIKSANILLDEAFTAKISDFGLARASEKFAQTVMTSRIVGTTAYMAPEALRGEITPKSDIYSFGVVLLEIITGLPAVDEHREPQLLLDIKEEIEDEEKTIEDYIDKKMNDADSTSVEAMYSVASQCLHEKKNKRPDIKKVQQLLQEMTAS
Chain of TGFBR1 (human) (P36897 whole entry, looked up): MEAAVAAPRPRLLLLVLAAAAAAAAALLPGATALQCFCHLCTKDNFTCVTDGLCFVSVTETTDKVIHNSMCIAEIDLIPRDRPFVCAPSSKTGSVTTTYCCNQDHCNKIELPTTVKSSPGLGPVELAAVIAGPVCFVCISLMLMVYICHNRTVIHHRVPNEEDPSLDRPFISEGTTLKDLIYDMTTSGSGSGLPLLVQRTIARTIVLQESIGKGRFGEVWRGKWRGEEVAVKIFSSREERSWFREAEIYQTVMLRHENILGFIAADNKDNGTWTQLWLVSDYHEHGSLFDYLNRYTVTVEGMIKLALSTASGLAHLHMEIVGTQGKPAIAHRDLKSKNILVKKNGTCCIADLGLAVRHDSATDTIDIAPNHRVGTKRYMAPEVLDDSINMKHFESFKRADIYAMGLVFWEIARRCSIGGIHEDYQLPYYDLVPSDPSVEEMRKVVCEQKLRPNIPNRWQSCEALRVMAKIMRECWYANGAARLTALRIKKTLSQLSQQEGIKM

residual activity (ADRBK1 (human)): 89.5% | residual activity (ADRBK2 (human)): 108% | residual activity (AKT3 (human)): 98.8% | residual activity (BLK (human)): 75.1% | residual activity (CAMK1 (human)): 83.7% | residual activity (CAMK1G (human)): 101% | residual activity (CDK7 CCNH MNAT1 (human)): 89.9% | residual activity (CDK9 CCNT1 (human)): 75.2% | residual activity (CHEK1 (human)): 65.3% | residual activity (CLK2 (human)): 92.5% | residual activity (CSNK1A1 (human)): 48.2% | residual activity (DCLK2 (human)): 88.5% | residual activity (DYRK1B (human)): 84.7% | residual activity (DYRK2 (human)): 79.1% | residual activity (DYRK4 (human)): 96.8% | residual activity (EPHA2 (human)): 84.3% | residual activity (ERBB4 (human)): 102% | residual activity (FES (human)): 92.4% | residual activity (FGFR2 (human)): 92.1% | residual activity (FLT1 (human)): 73.6% | residual activity (IRAK4 (human)): 102% | residual activity (JAK2 JH1 JH2 (human)): 84.6% | residual activity (KDR (human)): 72.9% | residual activity (MAPK13 (human)): 105% | residual activity (MAPK3 (human)): 90.4% | residual activity (MAPK9 (human)): 65.6% | residual activity (MLTK (human)): 89.6% | residual activity (MYLK (human)): 65% | residual activity (NEK6 (human)): 92.2% | residual activity (NLK (human)): 94.6% | residual activity (NTRK2 (human)): 4.08% | residual activity (PASK (human)): 94.1% | residual activity (PKN1 (human)): 87.5% | residual activity (RET (human)): 8.05% | residual activity (RIPK2 (human)): 72.3% | residual activity (STK11 (human)): 25.6% | residual activity (STK16 (human)): 54.8% | residual activity (SYK (human)): 58.5% | residual activity (TAOK1 (human)): 102% | residual activity (TBK1 (human)): 53.6% | residual activity (TGFBR1 (human)): 98.9% | residual activity (TGFBR2 (human)): 113%
SMILES: O=C1Nc2ccccc2/C1=C1\Nc2ccccc2\C1=N/O

residual activity (ADRBK1 (human)): 101% | residual activity (ADRBK2 (human)): 100% | residual activity (AKT3 (human)): 92.9% | residual activity (BLK (human)): 39.1% | residual activity (CAMK1 (human)): 76% | residual activity (CAMK1G (human)): 102% | residual activity (CDK7 CCNH MNAT1 (human)): 77.9% | residual activity (CDK9 CCNT1 (human)): 52.5% | residual activity (CHEK1 (human)): 67% | residual activity (CLK2 (human)): 92% | residual activity (CSNK1A1 (human)): 84.8% | residual activity (DCLK2 (human)): 86.4% | residual activity (DYRK1B (human)): 65.1% | residual activity (DYRK2 (human)): 61.4% | residual activity (DYRK4 (human)): 100% | residual activity (EPHA2 (human)): 65.3% | residual activity (ERBB4 (human)): 97.5% | residual activity (FES (human)): 81.7% | residual activity (FGFR2 (human)): 76% | residual activity (FLT1 (human)): 51% | residual activity (IRAK4 (human)): 60.3% | residual activity (JAK2 JH1 JH2 (human)): 43.1% | residual activity (KDR (human)): 56.4% | residual activity (MAPK13 (human)): 94.8% | residual activity (MAPK3 (human)): 98.7% | residual activity (MAPK9 (human)): 44.3% | residual activity (MLTK (human)): 76.4% | residual activity (MYLK (human)): 32.3% | residual activity (NEK6 (human)): 96.3% | residual activity (NLK (human)): 101% | residual activity (NTRK2 (human)): 1.62% | residual activity (PASK (human)): 89.8% | residual activity (PKN1 (human)): 49.9% | residual activity (RET (human)): 1.22% | residual activity (RIPK2 (human)): 62.8% | residual activity (STK11 (human)): 5.77% | residual activity (STK16 (human)): 12.7% | residual activity (SYK (human)): 38.6% | residual activity (TAOK1 (human)): 98.2% | residual activity (TBK1 (human)): 29.9% | residual activity (TGFBR1 (human)): 102% | residual activity (TGFBR2 (human)): 119%
SMILES: O=C1Nc2ccccc2/C1=C1/Nc2ccccc2/C1=N\OCCC(O)CO (stereo not drawn)

SMILES: O=C(O)/C=C/c1cc(Br)c(Br)c(Br)c1Br
residual activity (ADRBK1 (human)): 97.9% | residual activity (ADRBK2 (human)): 94.3% | residual activity (AKT3 (human)): 92.7% | residual activity (BLK (human)): 95.1% | residual activity (CAMK1 (human)): 105% | residual activity (CAMK1G (human)): 94.1% | residual activity (CDK7 CCNH MNAT1 (human)): 88.6% | residual activity (CDK9 CCNT1 (human)): 58.9% | residual activity (CHEK1 (human)): 135% | residual activity (CLK2 (human)): 85% | residual activity (CSNK1A1 (human)): 79.3% | residual activity (DCLK2 (human)): 94.8% | residual activity (DYRK1B (human)): 79.1% | residual activity (DYRK2 (human)): 79.4% | residual activity (DYRK4 (human)): 96.4% | residual activity (EPHA2 (human)): 97.9% | residual activity (ERBB4 (human)): 104% | residual activity (FES (human)): 88.8% | residual activity (FGFR2 (human)): 99.5% | residual activity (FLT1 (human)): 87.5% | residual activity (IRAK4 (human)): 86.6% | residual activity (JAK2 JH1 JH2 (human)): 101% | residual activity (KDR (human)): 90.1% | residual activity (MAPK13 (human)): 98.5% | residual activity (MAPK3 (human)): 110% | residual activity (MAPK9 (human)): 96.4% | residual activity (MLTK (human)): 89.4% | residual activity (MYLK (human)): 83.3% | residual activity (NEK6 (human)): 102% | residual activity (NLK (human)): 99.1% | residual activity (NTRK2 (human)): 98.2% | residual activity (PASK (human)): 24.8% | residual activity (PKN1 (human)): 85.5% | residual activity (RET (human)): 76.4% | residual activity (RIPK2 (human)): 88.4% | residual activity (STK11 (human)): 42.8% | residual activity (STK16 (human)): 90.4% | residual activity (SYK (human)): 102% | residual activity (TAOK1 (human)): 56.3% | residual activity (TBK1 (human)): 91.4% | residual activity (TGFBR1 (human)): 90.8% | residual activity (TGFBR2 (human)): 85.7%

SMILES: CN(C)C[C@H]1CCn2c(c(C3=C(c4cn(C)c5ccccc45)C(=O)NC3=O)c3ccccc32)C1
residual activity (ADRBK1 (human)): 103% | residual activity (ADRBK2 (human)): 102% | residual activity (AKT3 (human)): 56.3% | residual activity (BLK (human)): 103% | residual activity (CAMK1 (human)): 105% | residual activity (CAMK1G (human)): 95.8% | residual activity (CDK7 CCNH MNAT1 (human)): 83% | residual activity (CDK9 CCNT1 (human)): 39.6% | residual activity (CHEK1 (human)): 69.8% | residual activity (CLK2 (human)): 85.9% | residual activity (CSNK1A1 (human)): 98.5% | residual activity (DCLK2 (human)): 97.8% | residual activity (DYRK1B (human)): 92.2% | residual activity (DYRK2 (human)): 102% | residual activity (DYRK4 (human)): 98.9% | residual activity (EPHA2 (human)): 102% | residual activity (ERBB4 (human)): 84.3% | residual activity (FES (human)): 102% | residual activity (FGFR2 (human)): 104% | residual activity (FLT1 (human)): 91.3% | residual activity (IRAK4 (human)): 107% | residual activity (JAK2 JH1 JH2 (human)): 98.6% | residual activity (KDR (human)): 101% | residual activity (MAPK13 (human)): 117% | residual activity (MAPK3 (human)): 102% | residual activity (MAPK9 (human)): 105% | residual activity (MLTK (human)): 87.3% | residual activity (MYLK (human)): 84% | residual activity (NEK6 (human)): 94.6% | residual activity (NLK (human)): 101% | residual activity (NTRK2 (human)): 102% | residual activity (PASK (human)): 93% | residual activity (PKN1 (human)): 7.06% | residual activity (RET (human)): 99.7% | residual activity (RIPK2 (human)): 94.4% | residual activity (STK11 (human)): 91.9% | residual activity (STK16 (human)): 109% | residual activity (SYK (human)): 99.6% | residual activity (TAOK1 (human)): 93% | residual activity (TBK1 (human)): 91.4% | residual activity (TGFBR1 (human)): 99.8% | residual activity (TGFBR2 (human)): 98.5%
